Ends that are not written are not given here. PEG = not defined here
Assays:
[1] = system: human thyroid cancer cells (FRO); assay: scratch assay, migration of FRO cells; type: cell-based; conditions: 10 μM, 48 hours, control group 60.34 ± 8.32
Procedure: (§1) In the scratch assay, the cell migration rate was negatively correlated with the inhibitory effect of the drug component on tumor cell migration ability. The cell migration inhibition experiment was described as follows: tumor cells were cultured in vitro, cells in logarithmic growth phase were collected and seeded evenly in a 24-well plate at a density of 1-2×10^5 cells/well; the cells were cultured in a cell incubator until a monolayer was formed; a scratch tool was used to make a “-” (straight) scratch on the monolayer of cells; the cells were washed 1-3 times with PBS, and a medium (with 2% fetal bovine serum) containing specific test components was added to the culture. Experimental grouping: PBS control group; polypeptide or derivative thereof treatment group (N1-N54), 10 μM. Three independent parallel wells were set up in each group, and the cells were cultured continuously in a cell incubator for 48 hours. […] At least 3 representative images for each well were taken. ImageJ software was used to count the migration distance of the cells, and the cell migration rate was calculated as: cell migration rate (%)=(width of original scratch−width of current scratch)/width of original scratch×100.
This example was a scratch assay to evaluate the inhibitory effect of the polypeptide or derivative thereof (N1-N54) on the migration ability of human thyroid cancer cells (FRO). The experimental method was as described in Example 2.

[2] = system: human lung squamous carcinoma cells (NCI-H226); assay: scratch assay, migration of NCI-H226 cells; type: cell-based; conditions: NCI-H226, 10 μM, 48 hours; control group 65.31 ± 3.19
Procedure: as §1
This example was a scratch assay to evaluate the inhibitory effect of the polypeptide or derivative thereof (N1-N54) on the migration ability of human lung squamous carcinoma cells (NCI-H226). The experimental method was as described in Example 2.

[3] = system: human breast cancer cells (MDA-MB-453); assay: scratch assay, migration of MDA-MB-453 cells; type: cell-based; conditions: MDA-MB-453, 10 μM, 48 hours; control group 32.42 ± 2.04
Procedure: as §1
This example was a scratch assay to evaluate the inhibitory effect of the polypeptide or derivative thereof (N1-N54) on the migration ability of human breast cancer cells (MDA-MB-453). The experimental method was as described in Example 2.

[4] = system: human oral epidermoid carcinoma KB cells; assay: scratch assay, migration of KB cells; type: cell-based; conditions: 10 μM, 48 hours, control group 54.03 ± 4.21
Procedure: as §1
This example was a scratch assay to evaluate the inhibitory effect of the polypeptide or derivative thereof (N1-N54) on the migration ability of human oral epidermoid carcinoma cells (KB). The experimental method was as described in Example 2.

[5] = system: human liver adenocarcinoma cells (SK-HEP-1); assay: transwell migration assay, SK-HEP-1 cells; type: cell-based; conditions: SK-HEP-1 transwell migration, 10 μM, 24 hours; control group 1 782 ± 108, control group 2 768 ± 86
Procedure: (§2) The Transwell chamber system was used in the transwell cell migration experiment. The chamber has an upper layer and a lower layer, which are separated by an artificial semipermeable membrane in the middle. Cells that have migrated through the semi-permeable membrane will attach to the lower surface of the semi-permeable membrane. The migration ability is evaluated by counting the number of cells on the lower surface of the semi-permeable membrane. The number of cells that have migrated is negatively correlated with the inhibitory effect of the drug on the migration ability of the tumor cells. Transwell migration assay was performed as follows: tumor cells were cultured in vitro, cells in logarithmic growth phase were collected, and cell suspension was prepared with fresh serum-free medium at a density of 2-3×10^5 cells/mL. Cells were inoculated, 100 μL/well cell suspension (serum-free medium) in the upper chamber and 600 μL/well complete culture medium in the lower chamber. After incubated in 37° C., 5% CO2 incubator for 4-5 hours, serum-free medium (100 μL/well) was added to the control group, and serum-free medium containing polypeptide or derivative thereof (N1-N54) was added to the upper chamber of the treatment group (100 μL/well), the final concentration of the peptide or derivative thereof in the upper chamber was 10 μM. The cells were incubated continuously for 24 hours, and then fixed with methanol and stained with crystal violet. Images were taken under a microscope and the number of migrated cells was counted with ImageJ.
This example was a transwell cell migration experiment to evaluate the inhibitory effect of the polypeptide or derivative thereof (N1-N54) on the migration ability of human liver adenocarcinoma cells (SK-HEP-1). The experimental method was as described in Example 3.

[6] = system: human lung cancer cells (A549) subcutaneous xenograft; assay: lung cancer subcutaneous xenograft animal model, intravenous injection; type: in vivo, mice (BALB/c-nu/nu); conditions: intravenous 60 mg/kg once every other day, 20 days; for Weight of tumor (g) (mean ± SD): control 2.53 ± 0.17; for Volume of tumor (mm^3) (mean ± SD): control 3373.26 ± 581.44
Procedure: Experimental animals: 4-6 weeks old female immunodeficiency mice (BALB/c-nu/nu, Beijing Vital River Laboratory Animal Technology Co., Ltd.).
Subcutaneous xenograft animal model. The number of cells inoculated subcutaneously vin mice was about 2×10^6/200 μL. When the volume of the subcutaneous tumor was greater than 100 mm^3, the mice were randomly divided into groups and subjected to treatment. When the mass volume of the tumors in model control group reached 2000 mm^3 or the animal dies, the treatment ended. The animals were dissected, the tumors were taken out, and the weight and volume of the tumors were measured. During the period of the entire experiment, the mice were observed and the body weight was measured every other day.
The method used in the efficacy test on the lung cancer subcutaneous xenograft animal model was as described in Example 5. The lung cancer cells were the human lung cancer cells (A549), and the route of administration was intravenous injection. This example involved a total of 3 experiments to evaluate N1-N15, N16-N30, and N31-N54 respectively. The experimental procedure, route of administration, dosage and frequency of administration, and detection method were all consistent in the three experiments. The experimental groups were model control group and polypeptide or derivative thereof treatment groups (N1-N15, N16-N30, or N31-N54). The drug dosage of the N1-N54 treatment groups was 60 mg/kg, and the treatment time was 20 days.

[7] = system: human lung cancer cells (95D); assay: scratch assay, migration of 95D cells; type: cell-based; conditions: 10 μM, 48 hours, control group 55.3 ± 3.19
Procedure: as §1
This example was a scratch assay to evaluate the inhibitory effect of the polypeptide or derivative thereof (N1-N54) on the migration ability of human lung cancer cells (95D). The experimental method was as described in Example 2.

[8] = system: human pancreatic cancer cells (PANC-1); assay: transwell migration assay, PANC-1 cells; type: cell-based; conditions: PANC-1 transwell migration, 10 μM, 24 hours; control group 360 ± 60
Procedure: as §2
This example was a transwell cell migration experiment to evaluate the inhibitory effect of the polypeptide or derivative thereof (N1-N54) on the migration ability of human pancreatic cancer cells (PANC-1). The experimental method was as described in Example 3.

[9] = system: human non-small cell lung cancer cells (A549); assay: scratch assay, migration of A549 cells; type: cell-based; conditions: A549, 10 μM, 48 hours; control group 75.31 ± 8.19
Procedure: as §1
This example was a scratch assay to evaluate the inhibitory effect of the polypeptide or derivative thereof (N1-N54) on the migration ability of human non-small cell lung cancer (A549). The experimental method was as described in Example 2.

Row | Substance | Migration rate (%) (mean ± SD, P) [1] | Migration rate (%) (mean ± SD, P) [2] | Migration rate (%) (mean ± SD, P) [3] | Migration rate (%) (mean ± SD, P) [4] | Number of cells (mean ± SD, P), migrated cells [5] | Weight of tumor (g) (mean ± SD) [6] | Volume of tumor (mm^3) (mean ± SD) [6] | Migration rate (%) (mean ± SD, P) [7] | Number of cells (mean ± SD, P), migrated cells [8] | Migration rate (%) (mean ± SD, P) [9]
1 | N11: SEQ ID NO: 1 with deletion of positions 15-18 and 1-3 and PEG modification at the amino terminal ({PEG}-RFLAKENVTQD; reading uncertain) | 10.09 ± 4.33,*** % | 21.77 ± 5.03,*** % | 4.49 ± 1.6,*** % | 8.29 ± 1.96,*** % | 80 ± 6,**** | 1.3 ± 0.23 | 1419.28 ± 615.42 | 28.28 ± 3.68,*** % | 239 ± 26,* | 30.79 ± 6.74,** %
2 | N38: SEQ ID NO: 1 with one amino acid added at each terminal and PEG modification at the carboxyl terminal (FYRVRFLAKENVTQDAEDNC-{PEG}; reading uncertain) | 19.23 ± 7.52,** % | 47.66 ± 6.39,* % | 12.46 ± 2.5,*** % | 15.57 ± 3.65,* % | 380 ± 32,*** | 0.71 ± 0.27 | 927.9 ± 205.31 | 37.60 ± 3.67,** % | 116 ± 27,*** | 46.92 ± 4.49,** %
3 | N20: SEQ ID NO: 1 with addition of one amino acid at the amino terminal and deletion of position 18 (RYRVRFLAKENVTQDAED) | 24.03 ± 8.61,* % | 19.54 ± 6.51,*** % | 7.67 ± 1.35,** % | 6.92 ± 3.28,*** % | 299 ± 35,**** | 0.56 ± 0.18 | 1072.16 ± 390.44 | 43.15 ± 5.46,* % | 244 ± 23,* | 55.77 ± 5.06,* %
4 | N43: SEQ ID NO: 1 with addition of one amino acid at the amino terminal, deletion of position 18, PEG at the carboxyl terminal (RYRVRFLAKENVTQDAED-{PEG}; reading uncertain) | 19.78 ± 4.60,** % | 16.38 ± 7.71,*** % | 10.38 ± 6.04,** % | 11.22 ± 1.74,*** % | 157 ± 29,**** | 0.85 ± 0.14 | 1218.7 ± 190.78 | 30.38 ± 4.71,** % | 157 ± 15,*** | 57.74 ± 5.39,* %
5 | N45: SEQ ID NO: 1 with V11R, deletion of positions 1-5 and 15-18, PEG modification at the carboxyl terminal (LAKENRTQD-{PEG}; reading uncertain) | 24.22 ± 6.27,** % | 23.76 ± 5.38,*** % | 5.53 ± 2.87,*** % | 8.79 ± 2.28,*** % | 162 ± 15,**** | 0.97 ± 0.28 | 1204.87 ± 212.94 | 33.76 ± 5.38,** % | 135 ± 10,*** | 56.03 ± 4.21,* %
6 | N3: SEQ ID NO: 1 with deletion of position 18 and PEG modification at the amino terminal ({PEG}-YRVRFLAKENVTQDAED; reading uncertain) | 3.51 ± 1.34,*** % | 16.38 ± 6.85,*** % | 13.04 ± 3.5,** % | 9.95 ± 2.19,*** % | 112 ± 10,**** | 0.56 ± 0.16 | 1511.56 ± 433.12 | 30.19 ± 5.91,** % | 224 ± 28,** | 51.86 ± 2.15,** %
7 | N41: SEQ ID NO: 1 with addition of two amino acids at the amino terminal, deletion of position 18, PEG at the carboxyl terminal (FRYRVRFLAKENVTQDAED-{PEG}; reading uncertain) | 40.10 ± 2.73,* % | 15.30 ± 8.69,*** % | 11.5 ± 3.23,*** % | 20.01 ± 2.07,** % | 280 ± 24,**** | 0.84 ± 0.34 | 1075.33 ± 350.78 | 32.62 ± 3.79,** % | 248 ± 22,* | 56.03 ± 3.75,* %

From patent US20220280594A1, “APPLICATION OF POLYPEPTIDE OR DERIVATIVE THEREOF” (CHENGDU HUITAI BIOMEDICINE CO., LTD., priority 2019, published 2022)
